In ChEMBL document CHEMBL1128211, “3D-quantitative structure-activity relationships of human immunodeficiency virus type-1 proteinase inhibitors: comparative molecular field analysis of 2-heterosubstituted statine derivatives-implications for the design of novel inhibitors” (J Med Chem, 1995):

What follows are molecules tested against Human immunodeficiency virus type 1 protease (Human immunodeficiency virus 1, UniProt Q72874) (assay: Inhibitory activity was determined against HIV type 1 protease).
For CC(C)[C@H](NC(=O)OCc1ccccc1)C(=O)N[C@@H](Cc1ccccc1)[C@@H](O)[C@@H](NCc1ccccc1)C(=O)N[C@H](C(=O)NCc1ccncc1)C(C)C, the Ki was 11 nM.
Work on CC(C)[C@H](NC(=O)[C@H](NCc1ccc(Cl)cc1)[C@H](O)[C@@H](N)Cc1ccccc1)C(=O)NCc1nc2ccccc2[nH]1 yielded a Ki of 182 nM.
With CC(C)(C)OC(=O)N[C@@H](Cc1ccccc1)[C@@H](O)[C@@H](NCc1ccc(CNC(=O)CCc2nc3ccccc3[nH]2)cc1)C(=O)NC(CO)c1ccccc1 (some centres undefined) the Ki was 2510 nM.
Work on COc1ccc(CN[C@@H](C(=O)N[C@@H]2c3ccccc3CC2O)[C@H](O)[C@H](Cc2ccccc2)NC(=O)[C@@H](NC(=O)OCc2ccccc2)C(C)(C)C)cc1 (some centres undefined) yielded a Ki of 9.55 nM.
CC(C)[C@H](NC(=O)[C@H](NCc1ccccc1)[C@H](O)[C@H](Cc1ccccc1)NC(=O)[C@@H](NC(=O)OCC1c2ccccc2-c2ccccc21)C(C)(C)C)C(=O)NCc1ccccc1 was tested, and the Ki was 15.8 nM.
Work on COc1ccc(CN[C@@H](C(=O)N[C@H](C(=O)NCc2nc3ccccc3[nH]2)C(C)C)[C@H](O)[C@H](Cc2ccccc2)NC(=O)[C@@H](NC(=O)CCc2ccc(P(=O)(O)O)cc2)C(C)(C)C)cc1 yielded a Ki of 7.76 nM.
Molecule CCCCCCCCOC(=O)N[C@H](C(=O)N[C@@H](Cc1ccccc1)[C@@H](O)[C@@H](NCc1ccccc1)C(=O)N[C@H](C(=O)NCc1ccccc1)C(C)C)C(C)(C)C has a Ki of 14.1 nM.
With CC(C)[C@H](NC(=O)[C@H](NCc1ccccc1)[C@H](O)[C@H](Cc1ccccc1)NC(=O)[C@H](CC(N)=O)NC(=O)c1ccc2ccccc2n1)C(=O)NCc1ccccc1 the Ki was 24 nM.
CC(C)(C)[C@H](NC(=O)OCc1ccccc1)C(=O)N[C@@H](Cc1ccccc1)[C@@H](O)[C@@H](NCc1ccc(CNC(=O)CCc2nc3ccccc3[nH]2)cc1)C(=O)NCc1ccccc1 was tested, and the Ki was 53.7 nM.
In the case of COC(=O)CC[C@H](NC(=O)[C@H](NCc1ccc(OC)cc1)[C@H](O)[C@H](Cc1ccccc1)NC(=O)[C@@H](NC(=O)OCc1ccccc1)C(C)C)C(=O)NCc1nc2ccccc2[nH]1, the Ki is reported as 11 nM.
In the case of CC(C)[C@H](NC(=O)OCc1ccccc1)C(=O)N[C@@H](Cc1ccccc1)[C@@H](O)[C@@H](NCc1ccccc1)C(=O)N[C@H](C(=O)OCc1nc2cc(Cl)c(Cl)cc2[nH]1)C(C)C, the Ki is reported as 22.9 nM.
Molecule CC(C)[C@H](NC(=O)[C@H](NCc1ccccc1)[C@H](O)[C@H](Cc1ccccc1)NC(=O)[C@@H](N)C(C)(C)C)C(=O)NCc1ccccc1 has a Ki of 91.2 nM.
COc1ccc(CN[C@@H](C(=O)N[C@H]2c3ccccc3CC2O)[C@H](O)[C@H](Cc2ccccc2)NC(=O)[C@@H](NC(=O)OCc2ccccc2)C(C)(C)C)cc1 (some centres undefined) gave a Ki of 1820 nM.
In the case of CC(C)[C@H](NC(=O)OCc1ccccc1)C(=O)N[C@@H](Cc1ccccc1)[C@@H](O)[C@@H](NCc1ccccc1)C(=O)N[C@H](C(=O)NCc1ccccc1)C(C)(C)C, the Ki is reported as 20 nM.
Work on COc1ccc(CN[C@@H](C(=O)N[C@H](C(=O)Nc2nc3ccccc3[nH]2)C(C)C)[C@H](O)[C@H](Cc2ccccc2)NC(=O)[C@@H](NC(=O)OCc2ccccc2)C(C)C)cc1 yielded a Ki of 10 nM.
For COc1ccc(CN[C@@H](C(=O)N[C@H](C(=O)NCc2nc3ccccc3[nH]2)C(C)C)[C@H](O)[C@@H](N)Cc2ccccc2)cc1, the Ki was 229 nM.
Molecule CC(C)[C@H](NC(=O)OCc1ccccc1)C(=O)N[C@@H](Cc1ccccc1)[C@@H](O)[C@@H](Nc1ccc(-c2ccccc2)cc1)C(=O)N[C@H](C(=O)NCc1nc2ccccc2[nH]1)C(C)C has a Ki of 8.91 nM.
CC(=O)NCc1ccc(CN[C@@H](C(=O)N[C@H]2c3ccccc3CC2O)[C@H](O)[C@H](Cc2ccccc2)NC(=O)[C@@H](NC(=O)OCc2ccccc2)C(C)(C)C)cc1 (some centres undefined) showed a Ki of 5.75 nM.
For CC(C)[C@H](NC(=O)OCc1ccccc1)C(=O)N[C@@H](Cc1ccccc1)[C@@H](O)[C@@H](NCc1ccccc1)C(=O)N[C@H](C(=O)NCc1ccc(Br)cc1)C(C)C, the Ki was 15.1 nM.
With CC(=O)NCc1ccc(CN[C@@H](C(=O)N[C@H]2c3ccccc3CC2O)[C@H](O)[C@H](Cc2ccccc2)NC(=O)OC(C)(C)C)cc1 (some centres undefined) the Ki was 70.8 nM.
For COc1ccc(CCN[C@@H](C(=O)N[C@H](C(=O)NCc2nc3ccccc3[nH]2)C(C)C)[C@H](O)[C@H](Cc2ccccc2)NC(=O)[C@@H](NC(=O)OCc2ccccc2)C(C)C)cc1, the Ki was 12.6 nM.
For CCOc1ccc(CN[C@@H](C(=O)N[C@H](C(=O)NCc2nc3ccccc3[nH]2)C(C)C)[C@H](O)[C@H](Cc2ccccc2)NC(=O)[C@@H](NC(=O)OCc2ccccc2)C(C)C)cc1, the Ki was 24 nM.
Molecule COC(=O)CC[C@H](NC(=O)[C@H](NCc1ccc(OC)cc1)[C@H](O)[C@H](Cc1ccccc1)NC(=O)[C@@H](NC(=O)OCc1ccccc1)C(C)C)C(=O)NCc1ccc(OC)cc1O has a Ki of 6.03 nM.
Molecule CC(C)[C@H](NC(=O)[C@H](NCc1ccccc1)[C@H](O)[C@H](Cc1ccccc1)NC(=O)[C@@H](NC(=O)CCc1ccc(O)cc1)C(C)(C)C)C(=O)NCc1ccccc1 has a Ki of 12.9 nM.
In the case of CC(C)[C@H](NC(=O)[C@H](NCc1ccccc1)[C@H](O)[C@H](Cc1ccccc1)NC(=O)[C@@H](NC(=O)[C@@H](O)Cc1ccccc1)C(C)(C)C)C(=O)NCc1ccccc1, the Ki is reported as 15.1 nM.
With CC[C@H](C)[C@H](NC(=O)[C@H](NCc1ccccc1)[C@H](O)[C@H](Cc1ccccc1)NC(=O)[C@@H](NC(=O)OCc1ccccc1)C(C)C)C(=O)NCc1ccccc1 the Ki was 43.7 nM.
COc1ccc(CN[C@@H](C(=O)N[C@H]2c3ccccc3CC2O)[C@H](O)[C@H](Cc2ccccc2)NC(=O)OC(C)(C)C)cc1 (some centres undefined) was tested, and the Ki was 148 nM.
Molecule CC(C)[C@H](NC(=O)OCc1ccccc1)C(=O)N[C@@H](Cc1ccccc1)[C@@H](O)[C@@H](NCc1cccnc1)C(=O)N[C@H](C(=O)NCc1ccccc1)C(C)C has a Ki of 7.08 nM.
For COc1ccc(CN[C@@H](C(=O)N[C@H](C(=O)NCc2nc3cc[nH]cc-3n2)C(C)C)[C@H](O)[C@H](Cc2ccccc2)NC(=O)[C@@H](NC(=O)OCc2ccccc2)C(C)C)cc1, the Ki was 4.17 nM.
In the case of COc1ccc(CN[C@@H](C(=O)N[C@H](C(=O)NCn2nnc3ccccc32)C(C)C)[C@H](O)[C@H](Cc2ccccc2)NC(=O)[C@@H](NC(=O)OCc2ccccc2)C(C)C)cc1, the Ki is reported as 15.1 nM.
CC(C)[C@H](NC(=O)CCCCCNC(=O)OC(C)(C)C)C(=O)N[C@@H](Cc1ccccc1)[C@@H](O)[C@@H](NCc1ccccc1)C(=O)N[C@H](C(=O)NCc1ccccc1)C(C)C gave a Ki of 20.9 nM.
In the case of COc1ccc(CN[C@@H](C(=O)NCC(=O)NCc2nc3ccccc3[nH]2)[C@H](O)[C@H](Cc2ccccc2)NC(=O)[C@@H](NC(=O)OCc2ccccc2)C(C)C)cc1, the Ki is reported as 15.5 nM.
COc1ccc(CN[C@@H](C(=O)N[C@H](C(=O)NCc2nc3ccccc3[nH]2)c2ccccc2)[C@H](O)[C@@H](N)Cc2ccccc2)cc1 was tested, and the Ki was 89.1 nM.
With COc1ccc(CN[C@@H](C(=O)N[C@H](C(=O)NCCN(C)C)C(C)C)[C@H](O)[C@H](Cc2ccccc2)NC(=O)[C@@H](NC(=O)OCc2ccccc2)C(C)C)cc1 the Ki was 25.7 nM.
For Cc1cn(CCO)c(=O)n(CCOC(=O)[C@@H](NC(=O)[C@H](NCc2ccccc2)[C@H](O)[C@H](Cc2ccccc2)NC(=O)[C@@H](NC(=O)OCc2ccccc2)C(C)C)C(C)C)c1=O, the Ki was 550 nM.
For CCOC(=O)[C@H](NCc1ccc(CNCc2ccccc2)cc1)[C@H](O)[C@H](Cc1ccccc1)NC(=O)[C@@H](NC(=O)OCc1ccccc1)C(C)C, the Ki was 1910 nM.
In the case of COc1ccc(CN[C@@H](C(=O)N[C@H](C(=O)NCCNc2ccc([N+](=O)[O-])cn2)C(C)C)[C@H](O)[C@H](Cc2ccccc2)NC(=O)[C@@H](NC(=O)OCc2ccccc2)C(C)C)cc1, the Ki is reported as 9.55 nM.
CCOC(=O)[C@H](NCc1ccc(CN)cc1)[C@H](O)[C@H](Cc1ccccc1)NC(=O)[C@@H](NC(=O)OCc1ccccc1)C(C)C gave a Ki of 2690 nM.
COc1ccc(CN[C@@H](C(=O)N[C@H](C(=O)NCc2nc3cc[nH]cc-3n2)C(C)C)[C@H](O)[C@H](Cc2ccccc2)NC(=O)OC(C)(C)C)cc1 showed a Ki of 15.1 nM.
COc1ccc(CN[C@@H](C(=O)NCC(=O)Nc2cnccc2N)[C@H](O)[C@H](Cc2ccccc2)NC(=O)[C@@H](NC(=O)OCc2ccccc2)C(C)C)cc1 showed a Ki of 1510 nM.
CC(C)[C@H](NC(=O)OCCCCCN)C(=O)N[C@@H](Cc1ccccc1)[C@@H](O)[C@@H](NCc1ccccc1)C(=O)N[C@H](C(=O)NCc1ccccc1)C(C)C was tested, and the Ki was 33.1 nM.
CC(C)(C)OC(=O)N[C@@H](Cc1ccccc1)[C@@H](O)[C@@H](NCc1ccc(CNC(=O)Nc2ccccc2)cc1)C(=O)N[C@H]1c2ccccc2CC1O (some centres undefined) gave a Ki of 33.1 nM.
With CC(C)[C@H](NC(=O)OCc1ccccc1)C(=O)N[C@@H](Cc1ccccc1)[C@@H](O)[C@@H](NCc1ccccc1)C(=O)N[C@H](C(=O)OCc1nc2ccc([N+](=O)[O-])cc2[nH]1)C(C)C the Ki was 30.2 nM.
CC(C)[C@H](NC(=O)COc1ccccc1)C(=O)N[C@@H](Cc1ccccc1)[C@@H](O)[C@@H](NCc1ccccc1)C(=O)NCc1ccccc1 gave a Ki of 138 nM.
COc1ccc(CN[C@@H](C(=O)N[C@H](C(=O)NCc2nc3ccccc3[nH]2)C(C)C)[C@H](O)[C@H](Cc2ccccc2)NC(=O)OC(C)(C)C)cc1 showed a Ki of 7.76 nM.
With COc1ccc(CN[C@@H](C(=O)N[C@H](C(=O)N[C@H](CO)c2ccccc2)C(C)C)[C@H](O)[C@H](Cc2ccccc2)NC(=O)[C@@H](NC(=O)OCc2ccccc2)C(C)C)cc1 the Ki was 14.1 nM.
For COc1ccc(CN[C@@H](C(=O)N[C@H](C(=O)NCc2ccc(N3NC=CS3)cc2)C(C)C)[C@H](O)[C@H](Cc2ccccc2)NC(=O)[C@@H](NC(=O)OCc2ccccc2)C(C)C)cc1, the Ki was 14.1 nM.
CCOC(=O)[C@H](NCc1ccc(CNC(=O)c2ccccc2)cc1)[C@H](O)[C@H](Cc1ccccc1)NC(=O)[C@@H](NC(=O)OCc1ccccc1)C(C)C gave a Ki of 933 nM.
CC(C)[C@H](NC(=O)OCc1ccccc1)C(=O)N[C@@H](Cc1ccccc1)[C@@H](O)[C@H](NCc1ccccc1)C(=O)N[C@H](C(=O)NCc1cccnc1)C(C)C gave a Ki of 141 nM.
With COc1ccc(CN[C@@H](C(=O)N[C@H]2c3ccccc3CC2O)[C@H](O)[C@H](Cc2ccccc2)NC(=O)[C@@H](NC(=O)OC(C)(C)C)C(C)(C)C)cc1 (some centres undefined) the Ki was 209 nM.
For CCOc1ccc(CN[C@@H](C(=O)N[C@H]2c3ccccc3CC2O)[C@H](O)[C@H](Cc2ccccc2)NC(=O)OC(C)(C)C)cc1 (some centres undefined), the Ki was 91.2 nM.
CC(C)(C)[C@H](NC(=O)OCc1ccccc1)C(=O)N[C@@H](Cc1ccccc1)[C@@H](O)[C@@H](NCc1ccccc1)C(=O)N[C@@H]1c2ccccc2CC1O (some centres undefined) showed a Ki of 1580 nM.
For CC(C)(C)OC(=O)N[C@@H](Cc1ccccc1)[C@@H](O)[C@@H](NCc1ccc(OCCO)cc1)C(=O)N[C@H]1c2ccccc2CC1O (some centres undefined), the Ki was 79.4 nM.
Molecule CC(C)[C@H](N)C(=O)N[C@@H](Cc1ccccc1)[C@@H](O)[C@@H](NCc1ccccc1)C(=O)N[C@H](C(=O)NCc1ccccc1)C(C)C has a Ki of 741 nM.
